Several values for one entry are separate records, joined by “and”; a condition that tells them apart may be missing. Identical values can stand only once. Like-named read-outs stand apart in the source and are kept apart here.
What was measured:
hCB1R [1] = molecular target: T1, hCB1R (Homo sapiens, UniProt P21554); experiment: HTRF cAMP assay, antagonist mode (forskolin with CP55,940); details: for Emax: read-out: Variation of Emax
Target sequence in this assay (P21554 whole entry): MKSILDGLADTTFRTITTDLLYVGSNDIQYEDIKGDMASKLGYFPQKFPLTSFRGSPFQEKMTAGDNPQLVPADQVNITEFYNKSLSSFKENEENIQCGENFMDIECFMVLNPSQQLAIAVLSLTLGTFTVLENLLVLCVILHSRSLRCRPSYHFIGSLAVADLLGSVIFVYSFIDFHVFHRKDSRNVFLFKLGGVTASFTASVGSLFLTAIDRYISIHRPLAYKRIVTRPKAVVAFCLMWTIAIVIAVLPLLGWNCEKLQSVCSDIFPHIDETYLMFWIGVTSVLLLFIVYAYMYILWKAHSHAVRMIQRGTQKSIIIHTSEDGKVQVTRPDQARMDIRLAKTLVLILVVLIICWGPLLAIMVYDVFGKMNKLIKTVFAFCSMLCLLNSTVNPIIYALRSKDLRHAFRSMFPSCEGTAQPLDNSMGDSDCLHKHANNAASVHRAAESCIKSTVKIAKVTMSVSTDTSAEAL
Description: The homogeneous time-resolved fluorescence (HTRF) cAMP assay was conducted following the manufacturer’s protocol for the cAMP-Gs Dynamic kit. […] After 15 min, reactions were stopped by the 1× cAMP-d2 conjugate in lysis buffer (5 μL/well), followed by 1× anti-cAMP cryptate conjugate in lysis buffer (5 μL/well). Following a 1 h incubation at room temperature, the plates were read in a Revvity Envision reader for time-resolved fluorescence resonance energy transfer detection at 620 and 665 nm. The HTRF ratio versus compound concentrations was plotted using Prism 8.1 (GraphPad). HTRF ratio = (signal 665 nm/signal 620 nm) × 10^4.

CB1R [2] = details: cited from earlier work
CB2R = details: cited from earlier work
CB1R [3] = tested on: CB1R; set-up: method as in PMID 8070571, PMID 27240274, PMID 24175572; details: cited from earlier work
hCB1R [4] = molecular target: T1, hCB1R; experiment: [3H]CP55,940 displacement assay on CHO membranes, CB1R; format: binding; set-up: host or cells: CHO-K1 (CHOK1hCB1_bgal); details: for Ki: [3H]CP55,940 displacement
Target sequence in this assay (P21554 whole entry): as above

human CB2R = molecular target: T2, human CB2R (Homo sapiens, UniProt P34972); experiment: [3H]CP55,940 displacement assay on CHO membranes, CB2R; format: binding; details: for Ki: [3H]CP55,940 displacement; for hCB2R % displacement at 10 µM: [3H]CP55,940 displacement at 10 µM compound, ± SEM
T2 construct: host or cells: CHO-K1 (CHOK1hCB2_bgal)

hCB1R [5] = molecular target: T1, hCB1R; experiment: HTRF cAMP assay, agonist / inverse agonist mode; format: cell-based; set-up: expressed in transfected cells; host or cells: CHO; details: for Functional activity at CB1R (in words): CB1R cAMP HTRF assay
Target sequence in this assay (P21554 whole entry): as above

[6] = Photophysical characterization in PBS; format: physicochemical; details: PBS pH 7.4
hCB1R [7] = molecular target: T1, hCB1R; experiment: biochemical
Target sequence in this assay (P21554 91-472): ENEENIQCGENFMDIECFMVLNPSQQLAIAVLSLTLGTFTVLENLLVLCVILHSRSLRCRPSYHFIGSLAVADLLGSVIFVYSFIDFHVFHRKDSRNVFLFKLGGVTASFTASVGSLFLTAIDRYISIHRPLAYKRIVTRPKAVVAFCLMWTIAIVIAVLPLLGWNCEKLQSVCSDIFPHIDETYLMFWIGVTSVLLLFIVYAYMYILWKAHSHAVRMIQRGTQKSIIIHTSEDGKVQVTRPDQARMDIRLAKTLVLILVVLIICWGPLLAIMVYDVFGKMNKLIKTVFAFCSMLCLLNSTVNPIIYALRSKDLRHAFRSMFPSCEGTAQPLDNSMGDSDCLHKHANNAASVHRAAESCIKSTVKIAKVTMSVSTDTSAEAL

[8] = CHO membranes stably expressing human CB2R, means of three experiments, read-out: hCB2R Ki
[9] = hCB2R Ki, CHO membranes stably expressing human CB2R, means of three experiments
[10] = hCB1R Ki, CHO membranes stably expressing human CB1R, means of three experiments
[11] = CHO membranes stably expressing human CB1R, means of three experiments, read-out: hCB1R Ki

T2 sequence (P34972 whole entry): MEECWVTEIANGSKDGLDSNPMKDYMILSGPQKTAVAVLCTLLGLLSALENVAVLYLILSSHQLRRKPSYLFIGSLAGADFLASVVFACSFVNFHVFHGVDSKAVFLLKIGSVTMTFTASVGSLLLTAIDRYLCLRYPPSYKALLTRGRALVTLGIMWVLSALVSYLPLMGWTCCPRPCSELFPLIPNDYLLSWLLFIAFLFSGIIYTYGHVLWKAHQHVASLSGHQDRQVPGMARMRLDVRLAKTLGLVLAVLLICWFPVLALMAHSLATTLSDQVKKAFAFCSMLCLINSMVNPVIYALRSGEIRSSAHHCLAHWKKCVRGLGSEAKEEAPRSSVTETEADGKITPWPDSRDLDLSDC

| Compound | Emax (hCB1R [5]) | IC50 (hCB1R [5]) | Functional activity at CB1R (in words) (hCB1R [5]) | IC50 (hCB1R [1]) | Emax (hCB1R [1]) | Ki (human CB2R; [9]) | Ki (human CB2R; hCB2R pKi ± SEM, CHO membranes) | Ki (hCB1R [4]; [10]) | also measured |
| --- | --- | --- | --- | --- | --- | --- | --- | --- | --- |
| Cc1c(C(=O)NN2CCOCC2)nn(-c2ccc(Cl)cc2Cl)c1-c1ccc(I)cc1 [AM281, reference compound] | – | – | – | – | – | – | – | – | Variation of Emax (hCB1R [1]; antagonist mode, normalized to reference antagonist AM281): -100%; Antagonist activity (cAMP assay) pEC50 or pIC50 ± SEM (hCB1R [1]; antagonist mode, n.a. is no activity): 7.0 ± 0.04 |
| Cc1c(C(=O)NC2CCCCC2)cc(-c2cc(C(F)(F)F)ccc2C(F)(F)F)n1CC1CCCO1 (stereo not drawn) [Compound 5] | – | – | – | – | – | – | – | – | IC50 (CB1R [2]): 0.008 µM; IC50 (CB2R): > 0.08 µM; Functional profile at CB1R (in words) (CB1R [3]): inverse agonist |
| O=C(NN1CCCCC1)c1nn(-c2ccc(Cl)cc2Cl)c2c1CCCc1cc(Cl)ccc1-2 [Compound 7, NESS-0327] | – | – | – | – | – | – | – | – | Ki (CB1R [2]): 0.0042 µM; Ki (CB2R): 0.0557 µM; Functional profile at CB1R (in words) (CB1R [3]): neutral antagonist |
| O=C(NC1CCCCC1O)c1cnc(OCC2CC2)c(-c2ccc(F)cc2)c1 (stereo not drawn) [Compound 8] | – | – | – | – | – | – | – | – | Ki (CB1R [2]): 0.0428 µM; Ki (CB2R): > 10 µM; Functional profile at CB1R (in words) (CB1R [3]): inverse agonist |
| CCOC(=O)C(CC)(CC)NC(=O)c1cc(-c2cc(C(F)(F)F)ccc2C(F)(F)F)n(C[C@H]2CCCO2)c1C [Compound 14, Ethyl (R)-2-(5-(2,5-Bis(trifluoromethyl)phenyl)-2-methyl-1-((tetrahydrofuran-2-yl)methyl)-1H-pyrrole-3-carboxamido)-2-ethylbutanoate] | -46% | 0.00148 µM | inverse agonists | 0.01 µM | -107% | – | – | – | Ki (hCB1R [4]; hCB1R pKi ± SEM, CHO membranes): 0.011 µM; Ki(CB2R)/Ki(CB1R) selectivity (hCB1R [4]; radioligand binding Ki ratio): 28 fold; Ki (human CB2R; [8]): 0.306 µM |
| CCOC(=O)C(CC)(CC)NC(=O)c1nn(-c2ccc(Cl)cc2Cl)c(-c2ccc(Cl)cc2)c1C [Compound 15, Ethyl 2-(5-(4-Chlorophenyl)-1-(2,4-dichlorophenyl)-4-methyl-1H-pyrazole-3-carboxamido)-2-ethylbutanoate] | -42% | 0.0132 µM | inverse agonists | – | – | 0.009 µM | 0.00851 µM | – | Ki (hCB1R [4]; hCB1R pKi ± SEM, CHO membranes): 0.0282 µM |
| CCOC(=O)C(CC)(CC)NC(=O)c1nn(-c2ccc(Cl)cc2Cl)c2c1CCCc1cc(Cl)ccc1-2 [Compound 16, Ethyl 2-(8-Chloro-1-(2,4-dichlorophenyl)-1,4,5,6-tetrahydrobenzo[6,7]cyclohepta[1,2-c]pyrazole-3-carboxamido)-2-ethylbutanoate] | – | – | no activity | – | – | – | 0.00398 µM | – | Ki (hCB1R [4]; hCB1R pKi ± SEM, CHO membranes): 0.0178 µM |
| CCOC(=O)C(CC)(CC)NC(=O)c1cnc(OCC2CC2)c(-c2ccc(F)cc2)c1 [Compound 17, Ethyl 2-(6-(Cyclopropylmethoxy)-5-(4-fluorophenyl)nicotinamido)-2-ethylbutanoate] | -48% | 0.0436 µM | inverse agonists | 3.98 µM | -116% | 0.006 µM | 0.00646 µM | 0.308 µM | – |
| CCOC(=O)C(CC)(CC)NC(=O)c1cnc(OCCOC)c(-c2ccc(Cl)cc2)n1 [Compound 18, Ethyl 2-(6-(4-Chlorophenyl)-5-(2-methoxyethoxy)pyrazine-2-carboxamido)-2-ethylbutanoate] | -41% | 0.191 µM | inverse agonists | – | – | – | 0.0112 µM | 0.817 µM | – |
| CCOC(=O)C(CC)(CC)NC(=O)c1nn(Cc2cccc(F)c2)c2ccccc12 [Compound 19, Ethyl 2-Ethyl-2-(1-(3-fluorobenzyl)-1H-indazole-3-carboxamido)butanoate] | 93% | – | agonist | – | – | 0.001 µM | 0.000631 µM | – | Ki (hCB1R [4]; hCB1R pKi ± SEM, CHO membranes): 0.0191 µM; EC50 (hCB1R [5]): 0.00324 µM |
| CCC(CC)(NC(=O)c1cc(-c2cc(C(F)(F)F)ccc2C(F)(F)F)n(C[C@H]2CCCO2)c1C)C(=O)NCCOCCOCCNC(=O)OC(C)(C)C [Compound 22b, tert-Butyl (R)-(1-(5-(2,5-Bis(trifluoromethyl)phenyl)-2-methyl-1-((tetrahydrofuran-2-yl)methyl)-1H-pyrrol-3-yl)-3,3-diethyl-1,4-dioxo-8,11-dioxa-2,5-diazatridecan-13-yl)carbamate] | -69% | – | inverse agonist | 1 µM | -105% | – | – | – | Ki (hCB1R [4]; [11]): 0.811 µM; hCB2R % displacement at 10 µM (human CB2R): 22 ± 9%; Ki (human CB2R; [8]): > 10 µM; IC50 (hCB1R [5]; read-out: Functional activity (cAMP assay) IC50): 0.131 µM |
| CCC(CC)(NC(=O)c1nn(-c2ccc(Cl)cc2Cl)c(-c2ccc(Cl)cc2)c1C)C(=O)NCCOCCOCCNC(=O)OC(C)(C)C [Compound 23b, tert-Butyl (1-(5-(4-Chlorophenyl)-1-(2,4-dichlorophenyl)-4-methyl-1H-pyrazol-3-yl)-3,3-diethyl-1,4-dioxo-8,11-dioxa-2,5-diazatridecan-13-yl)carbamate] | -44% | 0.0646 µM | inverse agonist | 1.58 µM | -96% | > 10 µM | – | 0.139 µM | hCB2R % displacement at 10 µM (human CB2R): 44 ± 5% |
| CCC(CC)(NC(=O)c1cc(-c2cc(C(F)(F)F)ccc2C(F)(F)F)n(C[C@H]2CCCO2)c1C)C(=O)NCCOCCOCCNc1ccc([N+](=O)[O-])c2nonc12 [Compound 28, (R)-5-(2,5-Bis(trifluoromethyl)phenyl)-2-methyl-N-(3-((2-(2-(2-((7-nitrobenzo[c][1,2,5]oxadiazol-4-yl)amino)ethoxy)ethoxy)ethyl)carbamoyl)pentan-3-yl)-1-((tetrahydrofuran-2-yl)methyl)-1H-pyrrole-3-carboxamide] | -62% | 0.0166 µM | inverse agonists | 0.398 µM | -97% | – | – | 0.097 µM | Ki(CB2R)/Ki(CB1R) (hCB1R [4]; radioligand binding Ki ratio): > 103; hCB2R % displacement at 10 µM (human CB2R): 41 ± 2%; Ki (human CB2R; [8]): > 10 µM; Abs (absorbance maximum) [6]: 475 nm; Em (emission maximum) [6]: 550 nm; QY (quantum yield) [6]: 1.3% |
| CCC(CC)(NC(=O)c1nn(-c2ccc(Cl)cc2Cl)c(-c2ccc(Cl)cc2)c1C)C(=O)NCCOCCOCCNc1ccc([N+](=O)[O-])c2nonc12 [Compound 30, 5-(4-Chlorophenyl)-1-(2,4-dichlorophenyl)-4-methyl-N-(3-((2-(2-(2-((7-nitrobenzo[c][1,2,5]oxadiazol-4-yl)amino)ethoxy)ethoxy)ethyl)carbamoyl)pentan-3-yl)-1H-pyrazole-3-carboxamide] | -41% | 0.0603 µM | Inverse agonist | – | – | > 10 µM | – | 0.428 µM | Ki(CB2R)/Ki(CB1R) (hCB1R [4]; radioligand binding Ki ratio): > 23; hCB2R % displacement at 10 µM (human CB2R): 49 ± 3%; Abs (absorbance maximum) [6]: 475 nm; Em (emission maximum) [6]: 570 nm; QY (quantum yield) [6]: 0.80% |
| CCC(CC)(NC(=O)c1cc(-c2cc(C(F)(F)F)ccc2C(F)(F)F)n(C[C@H]2CCCO2)c1C)C(=O)NCCOCCOCCNc1ccc([N+](=O)[O-])c2n[nH]nc12 [Compound 52, (R)-5-(2,5-Bis(trifluoromethyl)phenyl)-2-methyl-N-(3-((2-(2-(2-((7-nitro-2H-benzo[d][1,2,3]triazol-4-yl)amino)ethoxy)ethoxy)ethyl)carbamoyl)pentan-3-yl)-1-((tetrahydrofuran-2-yl)methyl)-1H-pyrrole-3-carboxamide] | – | – | – | – | – | – | – | – | Ki (hCB1R [4]; [11]): 0.225 µM; Ki (human CB2R; [8]): 1.62 µM; Abs (absorbance maximum) [6]: 425 nm; Em (emission maximum) [6]: 495 nm; QY (quantum yield) [6]: 0.10% |
| CCCCCCC(C)(C)c1cc(O)c2c(c1)OC(C)(C)[C@@H]1CC=C(CO)C[C@@H]21 [HU210] | – | – | – | – | – | – | – | – | Kd (hCB1R [7]): 0.00304 µM; koff (hCB1R [7]): 0.00183 s⁻¹; kon (hCB1R [7]): 623000 M⁻¹ s⁻¹; Ki (hCB1R [7]; Ki): 0.00208 µM and 0.00126 µM; Ki (hCB1R [7]; pKi): 0.00204 µM; residence time (hCB1R [7]; read-out: RT (residence time)): 9.1 min |

Reference: article PMC11284800 (Journal of Medicinal Chemistry, 2024)
